Here are results for four compounds from US9096543B2, “Nuclear transport modulators and uses thereof” (Karyopharm Therapeutics Inc., priority 2012, dated 2015).

For data set [1], the target named is T1, CRM1 (Homo sapiens, UniProt O14980).
T1 construct: endogenous in cells; host or cells: U2OS-RevGFP cells
In words: RevGFP assay: inhibition of CRM1 mediated nuclear export. Format: cell-based. The following applies: U2OS-RevGFP cells, ~1 hr with compound; read-out: Rev Export [IC50]. As to the method:
The inhibition of CRM1 mediated nuclear export by compounds of the invention was determined. The inhibitory activity of compounds for the CRM1 protein was determined in the RevGFP assay.
Experimental protocol: Rev is a protein from human immunodeficiency virus type 1 (HIV-1) and contains a nuclear export signal (NES) in its C-terminal domain and a nuclear localization signal (NLS) in its N-terminal domain. Nuclear export of Rev protein is dependent on the classical NES/CRM1 pathway (Neville et al, 1997, Kau et al, 2003). Nuclear accumulation of Rev is observed in cells treated with specific inhibitors of CRM1, such as LMB (Kau et al, 2003). In this assay, U2OS-RevGFP cells are seeded onto clear-bottom, black, 384-well plates the day before the experiment. Compounds are serially diluted 1:2 starting from 40 μM in a separate 384-well plate in DMEM, and then transferred onto cells. Cells are incubated with compound for ˜1 hr before fixation with 3.7% formaldehyde and nuclei staining with Hoechst 33258. The amount of GFP in cell nuclei was measured and compound IC50s were determined (Kau et al, 2003).

Data set [2] is described as follows: MTT Cell Proliferation Assay (CellTiter 96 AQueous One Solution, MTS). Format: cell-based. The note with it: human; 72 h treatment; cell line not given; read-out: Cytotoxicity [IC50]. An excerpt:
The CellTiter 96® AQueous One Solution cell proliferation assay (Promega) was used on MM1.S, Jurkat and HCT-116 cells to study the cytotoxic and cytostatic properties of the compounds. The assay is based on the cleavage of the tetrazolium salt, MTS, in the presence of an electron-coupling reagent PES (phenazine ethosulfate). The MTS tetrazolium compound is bioreduced by cells into a colored formazan product that is soluble in tissue culture medium. This conversion is presumably accomplished by NADPH or NADH produced by dehydrogenase enzymes in metabolically active cells. Assays are performed by adding a small amount of the CellTiter 96® AQueous One solution reagent directly to culture wells, incubating for 1-4 hours and then recording the absorbance at 490 nm with a 96-well plate reader. […] The cells were seeded at 5×10^3 to 1.5×10^4 cells (depending on cell type) in each well of 96-well plate in 100 μL of fresh culture medium and adherent cells were allowed to attach for overnight. The stock solutions of the compounds were diluted in cell culture medium to obtain eight concentrations of each drug, ranging from 1 nM to 30 μM and DMSO at less than 1% v/v was used as a negative control. After 72 h of treatment 20 μl of CellTiter 96® AQueous reagent was added into each well of the 96-well assay plates and the plate was incubate at 37° C. for 1-4 hours in a humidified, 5% CO2 atmosphere. Then the absorbance of each well was recorded at 490 nm by using a 96-well plate reader. In most cases the assay was performed in triplicates and the results were presented as half maximal inhibitory concentration (IC50) described below. Optical density versus compound concentration was plotted and analyzed using non linear regression equations (Excel Fit) and the IC50 for each compound was calculated.

Data set [3] is described as follows: Brain to plasma ratio (B:P) in rats. Format: in vivo. The following applies: 10 mg/kg po. The procedure:
Brain tissue following collection was rinsed with cold saline, dried on filter paper, weighed and snap-frozen by placing on dry ice. All samples were stored frozen at approximately −80° C. until analysis. […] Plasma samples were treated with the identical method (except homogenization step) and concentration of compound in either matrix was calculated based on the generated standard curves.

Data set [4] can be described thus: Pharmacokinetics (plasma AUC) in rats. The data set is classed as in vivo. The following applies: rat, 10 mg/kg po.
Data set [5] in a line: Pharmacokinetics (plasma AUC) in mice. The data set is classed as in vivo. The following applies: mouse, 10 mg/kg po. As to the method:
Blood was collected from mice (N=3) to contribute to the total of 10 time points (pre-dose, 5 min, 15 min, 30 min, 1 hour, 2 hours, 4 hours, 8 hours, 12 hours and 24 hours post dose). Mice were bled on a rotating basis, each mouse contributing 3 time points to the blood collection. At the designated time points, animals were anaesthetized under isoflurane, and approximately 110 μL of blood per time point was collected via retro-orbital puncture into pre-cooled K2EDTA (anti-coagulant) tubes. Blood samples were put on wet ice and centrifuged (2000 g, 5 min at 4° C.) to obtain plasma within 30 minutes of sample collection. All samples were stored frozen at approximately −80° C. until analysis. Prior to analysis, samples were mixed with internal standard (dexamethasone) in acetonitrile, vortexed, centrifuged, and supernatant was injected for analysis. Concentration of compounds in plasma was determined using LC-MS-MS instrumentation (API 4000, Triple Quadruple with electrospray ionization; Acuity Ultra Performance Liquid Chromatography column C18, with MeOH and formic acid as organic solvents). PK parameters including but not limited to Tmax, Cmax, t1/2, AUClast, AUCinf were calculated using WinNonlin Professional 6.2 software package, non-compartmental pharmacokinetic model NCA200.

For data set [6], the system named is A549 xenograft tumors. The data set is described as follows: A549 lung carcinoma xenograft model. Format: in vivo, CB-17 SCID mice. The note with it: cisplatin 5 mg/kg IP (positive control). As to the method: The A549 cell line was derived from explant culture of alveolar carcinoma tissue from a person. The cells were grown in Ham's F12-K tissue culture media with 10% fetal calf serum and 1% penicillin/streptomycin. Cells were routinely trypsinized and passaged 1:10. Thirty-two (32) female CB-17 SCID mice (Charles River Labs strain code 236), aged 5 to 6 weeks were used with a mean pre-treatment body weight of 16.3 grams. Mice were divided into four (4) groups of eight (8) prior to the initiation of treatment based on tumor volume. On the day of implantation, cells were washed in PBS, trypsinized and resuspended in complete media to a density of 2×10^7 cells/mL prior to being mixed with an equal volume of Matrigel. This mixture was then inoculated subcutaneously into mice in a volume of 0.1 mL using a 23 G needle.
Animal weights and condition were recorded daily, and tumors were measured on Mondays, Wednesdays and Fridays with micro-calipers, and tumor volume was calculated as (length×width×width)/2.
Animals with weight loss of more than 20% of their starting weight were euthanized. Mice with weight loss of more than 15% of their starting weight were not treated again until weight loss recovered to less than 5% of their starting weight. Any animals with a tumor volume of more than 1500 mm^3 were euthanized.
Dosing solutions were prepared fresh on each day of dosing. Compound 2 was supplied as a lyophilized powder containing 69.61% Compound 2 with the balance made up of Pluronic F-68 and PVP K29/32. This was prepared by dissolving the lyophilized powder in sterile water. Cisplatin was dissolved at 5 mg/mL in DMSO and diluted 1:10 in sterile water for injection. All test articles were administered in a volume of 0.1 mL/10 g body weight.
Statistical differences between treatment groups were determined using Mann-Whitney Rank Sum or ANOVA tests with a critical value of 0.05.

Data set [7] relates to IMQ-induced psoriasis. In words: Imiquimod (IMQ)-induced dermal inflammation/psoriasis model (Study 2). Format: in vivo, BALB/c mice. The following applies: Compound 2 2.5 mg/kg sc, cyclophosphamide 10 mg/kg oral. The procedure:
Forty (40) male BALB/c mice (Biological E Limited, Hyderabad (CPCSEA registration number: 36/99/CPCSEA)) were divided into four (4) groups consisting of ten (10) mice each. Animals were randomized based on their body weight. The groups were designated as Group-I (Nave), Group-II (IMQ; vehicle (PEG 400 and HPBCD)), Group-III (IMQ; Compound 2 (2.5 mg/kg)) and […] (IMQ; cyclophosphamide (10 mg/kg)).
A small area on the dorsum of each mouse was shaved, ensuring that these areas were of equal size/area. Psoriasis was induced in Groups II to IV by topical application of 50 mg of IMQ cream daily from Day 1 to Day 6 on the dorsum of the animals. On Day 1 and Day 2 of the study, four hours after topical application of IMQ, Compound 2 or positive control (cyclophosphamide) or vehicle were administered to animals in pertinent groups. Of note, animals in Group II and Group III were subjected to subcutaneous injections, whereas animals in Group IV received oral administration. The Compound 2, vehicle and cyclophosphamide treatment was terminated on Day 2. These groups of animals were maintained on daily IMQ treatments until Day 6. On Day 7, the psoriasis-induced animals were re-randomized into 3 groups consisting of 10 animals each based on Cumulative Disease Activity Index (CDAI). From Day 7 to Day 9, animals received vehicle or positive control or Compound 2. Of note, on these days animals were not treated with IMQ. From Day 10 to Day 14, the animals were treated alternatively with IMQ (Days 10, 12 and 14), or vehicle, positive control or Compound 2 (Days 11, 13).
All animals were observed daily for a period of […] for gross observations, body weight and feed and water intake. On Days 1 and 2, scorings of erythema, scaling, folding and thickening of skin were recorded 2 hours after administration of vehicle/positive control/test compounds, and on Days 3 to 14 scorings were recorded 4 hours after IMQ application, or administration of positive control, vehicle or Compound 2.
Vehicle was prepared by dissolving 40 mg of HPBCD in 70.0 mL of distilled water. Compound 2 was prepared by dissolving 3.59 mg in 0.5% PVP and 0.5% Pluronic. Cyclophosphamide was prepared by dissolving 500 mg of CMC in 100 mL distilled water.
The experimental results shown in Table 10 are expressed as mean±SEM. Data was assessed using one-way ANOVA, and post hoc analysis was performed using Dunnett's test.

T1 sequence (O14980 whole entry): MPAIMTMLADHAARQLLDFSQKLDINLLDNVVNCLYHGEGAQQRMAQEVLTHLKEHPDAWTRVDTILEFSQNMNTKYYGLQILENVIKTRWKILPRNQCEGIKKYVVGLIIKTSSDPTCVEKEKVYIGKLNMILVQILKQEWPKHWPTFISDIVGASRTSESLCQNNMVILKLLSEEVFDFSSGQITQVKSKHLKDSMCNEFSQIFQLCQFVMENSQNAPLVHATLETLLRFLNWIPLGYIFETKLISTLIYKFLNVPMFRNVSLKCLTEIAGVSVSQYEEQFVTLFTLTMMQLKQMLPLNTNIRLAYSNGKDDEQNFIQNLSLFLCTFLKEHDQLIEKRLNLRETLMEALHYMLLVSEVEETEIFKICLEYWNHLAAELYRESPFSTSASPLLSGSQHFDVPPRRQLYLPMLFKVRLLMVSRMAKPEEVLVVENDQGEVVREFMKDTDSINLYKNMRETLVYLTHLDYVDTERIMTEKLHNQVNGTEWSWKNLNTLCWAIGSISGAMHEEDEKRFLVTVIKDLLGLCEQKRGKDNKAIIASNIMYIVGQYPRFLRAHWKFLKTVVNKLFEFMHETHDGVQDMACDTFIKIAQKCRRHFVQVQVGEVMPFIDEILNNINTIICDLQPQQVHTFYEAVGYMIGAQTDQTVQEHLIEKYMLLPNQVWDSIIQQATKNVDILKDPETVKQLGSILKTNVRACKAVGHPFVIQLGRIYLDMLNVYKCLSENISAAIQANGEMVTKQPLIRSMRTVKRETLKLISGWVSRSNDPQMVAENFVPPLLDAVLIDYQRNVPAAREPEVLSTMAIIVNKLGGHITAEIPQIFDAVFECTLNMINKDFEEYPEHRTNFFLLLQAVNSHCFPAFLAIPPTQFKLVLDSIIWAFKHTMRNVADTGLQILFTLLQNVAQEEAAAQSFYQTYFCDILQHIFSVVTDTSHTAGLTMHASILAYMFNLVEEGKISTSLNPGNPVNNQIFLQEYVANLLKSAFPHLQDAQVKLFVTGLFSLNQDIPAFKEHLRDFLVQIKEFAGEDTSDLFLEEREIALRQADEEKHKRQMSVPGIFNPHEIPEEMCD

In general, IC50 refers to the midpoint of a concentration-inhibition curve. For orientation: Kp means the ratio of the level in a tissue or fluid to that in plasma or blood. In general, AUC(0-inf) refers to total exposure, with the tail of the curve extrapolated. A low value points to low exposure. On to `CC(C)OC(=O)/C=C\n1cnc(-c2cc(OC(C)C)cc(C(F)(F)F)c2)n1` [Compound X-2], for which the half-inhibitory concentration (IC50) in data set [1] was less than 1000 nM. For the same compound, the IC50 at 72 h in data set [2] is less than 1000 nM. For the same compound, the “B:P” value in data set [3] was “moderate brain to plasma ratio”. Further, the Kp at 2 h in data set [3] (rat, brain and plasma) was 1.27. The AUC(0-inf) in data set [4] came out at 68.3 ng·h/mL.

For `O=C(/C=C\n1cnc(-c2cc(C(F)(F)F)cc(C(F)(F)F)c2)n1)N1CC(F)(F)C1` [Compound X-3, reference compound], in data set [1], the IC50 is less than 1000 nM. In addition, in data set [2], the half-inhibitory concentration (IC50) at 72 h was less than 1000 nM. The AUC(0-inf) in data set [5] and in data set [4] was 12300 ng·h/mL in each case.

As to `N.N.[Cl][Pt][Cl]` [cisplatin, reference compound], the “tumor volume AUC compared to vehicle control (one-way ANOVA)” value in data set [6] is recorded as “no statistically significant reduction in tumor growth”.

`O=P1(N(CCCl)CCCl)NCCCO1` (stereo not drawn) [cyclophosphamide, reference compound]: the “Rate of reduction of DAI, % change from 1st dose administration” value in data set [7] (Day 7, pre-IMQ/drug administration readings) is recorded as 0.0%; in data set [7] (Day 10, 4 hr. post-IMQ/drug administration readings), −86.0%.
